Reference: patent publication US4835160A, “Derivatives of pyridoindole, having anti-tumor properties” (Sanofi, priority 1986, dated 1989)

Legend:
in vivo [1] = test: in vivo; parameters: species or system CDF1 hybrid mice; conditions: mouse, ip
Source text: The compounds of the invention benefit from a good tolerance and a weak toxicity.
Thus the administration, to healthy CDF1 hybrid mice, in a single injection by intraperitoneal route, of the compounds under test, has enabled it to be established that the product is perfectly tolerated at a high dosage since the survival rate of the animals of the experiment was 100 out of 100 thirteen days after administration.

in vivo [2] = test: in vivo; parameters: species or system female CDF1 hybrid mice; conditions: mouse, iv
Protocol: In addition the administration, to healthy female CDF1 hybrid mice, in a single injection by intravenous route with a perfusor, lasting 4 minutes, of the compounds under test in solution in physiological serum at a rate of 0.1 ml of solution per 10 g weight of the animals has enabled it to be established that the compounds are also well tolerated at a high dosage in these conditions.

leukemia P 388 = test: Test of leukemia P 388; IP/IP, D1-5; type: in vivo, CDF1 hybrid mice; conditions: D1-D5; for Number of survivors: day D30; for T/C %: survival time
Outline: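 CDF1 hybrid mice received 10^6 P 388 cells intraperitoneally, then compound in distilled water by intraperitoneal route daily D1-D5, 10 mice per group, 5-fluorouracil as positive control. Activity judged as T/C survival time versus untreated controls, survivors counted at D30; T/C ≤85% or day 5 minus day 1 weight change ≤ −4 g counted as toxic.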

leukemia P388 = test: Test for leukemia P388, IP/IP, D1; type: in vivo, CDF1 hybrid mice; conditions: for Number of survivors: day D30; for T/C %: survival time
Outline: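 CDF1 hybrid mice inoculated i.p. on D0 with 10^6 P388 leukemia cells; compound in distilled water given i.p. once on D1, 10 mice per group. Activity as increase in survival time versus untreated controls (T/C); survivors counted on D30. 5-fluorouracil positive control under same conditions.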

melanoma B 16 = test: Test for melanoma B 16; type: in vivo, BDF1 hybrid mice; conditions: D1-D9; for Number of survivors: day D60; for T/C %: survival time
Outline: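 BDF1 mice inoculated i.p. with 0.5 ml B16 melanoma homogenate (1 g tumour in 10 ml physiological serum); compound given i.p. daily D1–D9, Cis-platine positive control under same conditions. Surviving animals counted on D60; activity as survival increase vs untreated controls (T/C), toxicity if T/C ≤85%.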

SMILES: Cc1cnc(NCCCN(C)C)c2c1[nH]c1ccc(O)cc12 [Derivative No. 10, 1-(3-dimethylaminopropylamino)-8-hydroxy-4-methyl-5H-pyrido[4,3-b]indole]
- survival at 312 h (in vivo [1]; 100 mg/kg): 100%
- survival at 192 h (in vivo [2]; 25 mg/kg): 100%
- survival at 192 h (in vivo [2]; 40 mg/kg): 40%
- Median day of survival (leukemia P 388; 0.625 mg/kg IP): 15.75 days
- Variation by weight (g) (leukemia P 388; 0.625 mg/kg IP): +4.1 g
- Number of survivors (leukemia P 388; 0.625 mg/kg IP): 0/10
- T/C % (leukemia P 388; 0.625 mg/kg IP): 139%
- Median day of survival (leukemia P 388; 1.25 mg/kg IP): 17.0 days
- Variation by weight (g) (leukemia P 388; 1.25 mg/kg IP): +3.3 g
- Number of survivors (leukemia P 388; 1.25 mg/kg IP): 0/10
- T/C % (leukemia P 388; 1.25 mg/kg IP): 150%
- Median day of survival (leukemia P 388; 2.5 mg/kg IP): 16.4 days
- Variation by weight (g) (leukemia P 388; 2.5 mg/kg IP): +3.2 g
- Number of survivors (leukemia P 388; 2.5 mg/kg IP): 0/10
- T/C % (leukemia P 388; 2.5 mg/kg IP): 145%
- Median day of survival (leukemia P 388; 5 mg/kg IP): 21.0 days
- Variation by weight (g) (leukemia P 388; 5 mg/kg IP): +2.0 g
- Number of survivors (leukemia P 388; 5 mg/kg IP): 1/10
- T/C % (leukemia P 388; 5 mg/kg IP): 186%
- Median day of survival (leukemia P 388; 10 mg/kg IP): 16.75 days
- Variation by weight (g) (leukemia P 388; 10 mg/kg IP): +1.8 g
- Number of survivors (leukemia P 388; 10 mg/kg IP): 0/10
- T/C % (leukemia P 388; 10 mg/kg IP): 148%
- Median day of survival (leukemia P 388; 20 mg/kg IP): 7.8 days
- Variation by weight (leukemia P 388; 20 mg/kg IP): -0.4 g
- Number of survivors (leukemia P 388; 20 mg/kg IP): 0/10
- T/C % (leukemia P 388; 20 mg/kg IP): 69%
- Median day of survival (leukemia P388; 5 mg/kg IP): 15.3 days
- Variation by weight (leukemia P388; 5 mg/kg IP): -0.1 g
- Number of survivors (leukemia P388; 5 mg/kg IP): 0/10
- T/C % (leukemia P388; 5 mg/kg IP): 139%
- Median day of survival (leukemia P388; 10 mg/kg IP): 15.25 days
- Variation by weight (g) (leukemia P388; 10 mg/kg IP): +0.3 g
- Number of survivors (leukemia P388; 10 mg/kg IP): 0/10
- T/C % (leukemia P388; 10 mg/kg IP): 139%
- Median day of survival (leukemia P388; 20 mg/kg IP): 15.6 days
- Variation by weight (leukemia P388; 20 mg/kg IP): -0.8 g
- Number of survivors (leukemia P388; 20 mg/kg IP): 0/10
- T/C % (leukemia P388; 20 mg/kg IP): 142%
- Median day of survival (leukemia P388; 40 mg/kg IP): 15.3 days
- Variation by weight (leukemia P388; 40 mg/kg IP): -1.4 g
- Number of survivors (leukemia P388; 40 mg/kg IP): 0/10
- T/C % (leukemia P388; 40 mg/kg IP): 139%
- Median day of survival (melanoma B 16; 1.25 mg/kg IP): 32.0 days
- Variation by weight (g) (melanoma B 16; 1.25 mg/kg IP): +2.8 g
- Number of survivors (melanoma B 16; 1.25 mg/kg IP): 0/10
- T/C % (melanoma B 16; 1.25 mg/kg IP): 116%
- Median day of survival (melanoma B 16; 2.5 mg/kg IP): 38.75 days
- Variation by weight (g) (melanoma B 16; 2.5 mg/kg IP): +1.8 g
- Number of survivors (melanoma B 16; 2.5 mg/kg IP): 0/10
- T/C % (melanoma B 16; 2.5 mg/kg IP): 141%
- Median day of survival (melanoma B 16; 5 mg/kg IP): 44.0 days
- Variation by weight (g) (melanoma B 16; 5 mg/kg IP): +2.4 g
- Number of survivors (melanoma B 16; 5 mg/kg IP): 0/10
- T/C % (melanoma B 16; 5 mg/kg IP): 160%
- Median day of survival (melanoma B 16; 10 mg/kg IP): 11.7 days
- Variation by weight (g) (melanoma B 16; 10 mg/kg IP): +0.5 g
- Number of survivors (melanoma B 16; 10 mg/kg IP): 0/10
- T/C % (melanoma B 16; 10 mg/kg IP): 42%

SMILES: Cc1cnc(NCCCN(C)C)c2c3cc(O)ccc3n(C)c12 [Derivative No. 14, 4,5-dimethyl 1(3-dimethylaminopropylamino)-8-hydroxy-5H-pyrido[4,3-b]indole]
- survival at 312 h (in vivo [1]; 25 mg/kg): 100%
- survival at 192 h (in vivo [2]; 50 mg/kg): 100%
- Median day of survival (leukemia P 388; 2.5 mg/kg IP): 19.25 days
- Variation by weight (g) (leukemia P 388; 2.5 mg/kg IP): +0.9 g
- Number of survivors (leukemia P 388; 2.5 mg/kg IP): 1/10
- T/C % (leukemia P 388; 2.5 mg/kg IP): 166%
- Median day of survival (leukemia P 388; 5 mg/kg IP): 22 days
- Variation by weight (leukemia P 388; 5 mg/kg IP): -1.0 g
- Number of survivors (leukemia P 388; 5 mg/kg IP): 3/10
- T/C % (leukemia P 388; 5 mg/kg IP): 190%
- Median day of survival (leukemia P 388; 10 mg/kg IP): 11.75 days
- Variation by weight (leukemia P 388; 10 mg/kg IP): -1.7 g
- Number of survivors (leukemia P 388; 10 mg/kg IP): 0/10
- T/C % (leukemia P 388; 10 mg/kg IP): 102%
- Median day of survival (leukemia P 388; 20 mg/kg IP): 7.4 days
- Variation by weight (leukemia P 388; 20 mg/kg IP): -4.4 g
- Number of survivors (leukemia P 388; 20 mg/kg IP): 0/10
- T/C % (leukemia P 388; 20 mg/kg IP): 64%
- Median day of survival (leukemia P388; 5 mg/kg IP): 19.75 days
- Variation by weight (leukemia P388; 5 mg/kg IP): -1.2 g
- Number of survivors (leukemia P388; 5 mg/kg IP): 0/10
- T/C % (leukemia P388; 5 mg/kg IP): 173%
- Median day of survival (leukemia P388; 10 mg/kg IP): 19.0 days
- Variation by weight (leukemia P388; 10 mg/kg IP): -1.4 g
- Number of survivors (leukemia P388; 10 mg/kg IP): 1/10
- T/C % (leukemia P388; 10 mg/kg IP): 167%
- Median day of survival (leukemia P388; 20 mg/kg IP): 18.75 days
- Variation by weight (leukemia P388; 20 mg/kg IP): -2.5 g
- Number of survivors (leukemia P388; 20 mg/kg IP): 1/10
- T/C % (leukemia P388; 20 mg/kg IP): 164%
- Median day of survival (melanoma B 16; 1.25 mg/kg IP): 29.75 days
- Variation by weight (g) (melanoma B 16; 1.25 mg/kg IP): +1.0 g
- Number of survivors (melanoma B 16; 1.25 mg/kg IP): 0/10
- T/C % (melanoma B 16; 1.25 mg/kg IP): 123%
- Median day of survival (melanoma B 16; 2.5 mg/kg IP): 32.6 days
- Variation by weight (g) (melanoma B 16; 2.5 mg/kg IP): +0.1 g
- Number of survivors (melanoma B 16; 2.5 mg/kg IP): 0/10
- T/C % (melanoma B 16; 2.5 mg/kg IP): 134%
- Median day of survival (melanoma B 16; 5 mg/kg IP): 50.0 days
- Variation by weight (melanoma B 16; 5 mg/kg IP): -0.2 g
- Number of survivors (melanoma B 16; 5 mg/kg IP): 1/10
- T/C % (melanoma B 16; 5 mg/kg IP): 206%
- Median day of survival (melanoma B 16; 10 mg/kg IP): 11.75 days
- Variation by weight (melanoma B 16; 10 mg/kg IP): -1.9 g
- Number of survivors (melanoma B 16; 10 mg/kg IP): 0/10
- T/C % (melanoma B 16; 10 mg/kg IP): 48%
